Data published in US8765946B2, “Methods of preparing and using quinazoline and quinoline derivatives” (priority 2006, dated 2014).

What follows are compounds tested against T1, A431 cells EGFR-TK phosphorylation stimulated by EGF (Homo sapiens, UniProt P00533) (assay: Inhibition of cellular EGFR-TK phosphorylation stimulated by EGF in A431 cells). Conditions: A431 cells EGFR-TK phosphorylation stimulated by EGF (Table 4).
T1 construct: against A431 cells EGFR-TK; endogenous in cells; host or cells: A431 cells
T1 sequence (P00533 25-1210): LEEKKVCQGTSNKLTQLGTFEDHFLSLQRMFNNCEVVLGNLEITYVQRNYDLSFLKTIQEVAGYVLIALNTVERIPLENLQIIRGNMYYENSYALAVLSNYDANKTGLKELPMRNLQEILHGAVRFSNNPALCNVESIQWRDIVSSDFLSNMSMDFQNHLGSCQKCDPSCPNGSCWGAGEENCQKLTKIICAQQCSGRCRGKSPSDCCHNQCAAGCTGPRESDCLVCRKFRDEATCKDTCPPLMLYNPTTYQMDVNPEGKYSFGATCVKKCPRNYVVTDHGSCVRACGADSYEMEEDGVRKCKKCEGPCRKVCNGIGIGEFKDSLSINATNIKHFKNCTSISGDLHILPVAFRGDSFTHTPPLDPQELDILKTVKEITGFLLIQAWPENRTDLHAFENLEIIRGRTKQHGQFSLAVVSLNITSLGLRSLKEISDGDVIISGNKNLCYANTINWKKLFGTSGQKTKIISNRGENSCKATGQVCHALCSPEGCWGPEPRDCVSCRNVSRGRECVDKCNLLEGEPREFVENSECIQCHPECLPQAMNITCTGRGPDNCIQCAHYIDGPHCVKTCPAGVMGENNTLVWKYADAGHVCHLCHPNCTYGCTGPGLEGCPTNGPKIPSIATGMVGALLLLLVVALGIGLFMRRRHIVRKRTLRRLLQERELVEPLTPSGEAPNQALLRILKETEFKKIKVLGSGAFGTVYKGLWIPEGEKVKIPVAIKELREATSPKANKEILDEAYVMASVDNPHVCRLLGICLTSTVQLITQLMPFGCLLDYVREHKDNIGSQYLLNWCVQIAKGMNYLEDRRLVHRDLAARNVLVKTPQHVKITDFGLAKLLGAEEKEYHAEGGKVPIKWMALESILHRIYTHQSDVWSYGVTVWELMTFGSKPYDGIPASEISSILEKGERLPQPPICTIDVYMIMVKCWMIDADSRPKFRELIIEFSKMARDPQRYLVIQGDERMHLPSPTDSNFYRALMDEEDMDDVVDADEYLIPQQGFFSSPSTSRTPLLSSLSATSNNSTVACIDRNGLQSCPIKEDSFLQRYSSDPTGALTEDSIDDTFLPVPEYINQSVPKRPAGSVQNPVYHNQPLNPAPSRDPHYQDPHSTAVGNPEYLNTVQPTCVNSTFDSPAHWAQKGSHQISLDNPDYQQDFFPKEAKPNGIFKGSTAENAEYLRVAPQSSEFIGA
Type: cell-based
Description: Inhibition Experiment of Cellular Epidermal Growth Factor Receptor Tyrosine Kinase
1) A431 cells were cultured in a medium which was prepared by adding 10% FCS into another medium comprising 50% DMEM and 50% F12.
2) A431 cells grown in six-well plates were cultured in a serum-free medium for 24 hours. During the 24 hour period the medium was replenished once after 12 hours.
3) A solution containing a compound to be assessed was added the A431 cells and the cells were cultured for 2 hours, supplemented twice by a medium free of the compound, and then EGF (100 ng/well) was added, and cultured for 5 minutes.
4) A431 cell homogenate was prepared by Laemili buffer which comprised 2% sodium dodecyl sulfonate (SDS), 5% 2-mercaptoethanol, 10% glycerol and 5 mM Tris (pH 6.8).
5) The A431 cell homogenate was heated for 5 minutes at 100° C.
6) Proteins in the A431 cell homogenates were separated by PAGE and transferred onto a nitrocellulose membrane, and an infrared reading was obtained.

| EC50 | SMILES |
| --- | --- |
| 230 nM | COCCOc1cc2ncnc(Nc3cccc(Br)c3)c2cc1NC(=O)C=C1CCN(C)CC1 [Example 65, N-(4-(3-bromophenylamino)-7-(2-methoxyethoxy)quinazolin-6-yl)-2-(1-methylpiperidin-4-ylidene)acetamide] |
| 900 nM | COc1cc2ncnc(Nc3ccc(Oc4ccccc4)c(OC)c3)c2cc1NC(=O)C=C1CCNCC1 [Example 110, N-(7-methoxy-4-(3-methoxy-4-phenoxyphenylamino)quinazolin-6-yl)-2-(piperidin-4-ylidene)acetamide] |
| 280 nM | COCCOc1cc2ncc(C#N)c(Nc3ccc(OCc4cccc(F)c4)c(Cl)c3)c2cc1N [Example 141, 4-(4-(3-fluorobenzyloxy)-3-chlorophenylamino)-6-amino-7-(2-methoxyethoxy)quinoline-3-carbonitrile] |

Same assay, conditions: A-431; concentration of 3 μM; A431 cells, EGF stimulated; one-time measurement at a single concentration (preliminary selection); NA = No activity; read-out: Inhibition Percent (%)

| inhibition at 3 µM | SMILES |
| --- | --- |
| 73% | C#Cc1cccc(Nc2ncnc3ccc(NC(=O)C=C4CCN(CC)CC4)cc23)c1 [Example 5, 2-(1-Ethylpiperidin-4-ylidene)-N-(4-(3-ethynylphenylamino)quinazolin-6-yl)acetamide] |
| 24% | C#Cc1cccc(Nc2ncnc3ccc(NC(=O)C=C4CCN(Cc5ccccc5)CC4)cc23)c1 [Example 6, 2-(1-benzylpiperidin-4-ylidene)-N-(4-(3-ethynylphenylamino)quinazolin-6-yl)acetamide] |
| 55% | O=C(C=C1CCNCC1)Nc1cc2c(Nc3cccc(Cl)c3)ncnc2cc1F [Example 30, N-(4-(3-chlorophenylamino)-7-fluoroquinazolin-6-yl)-2-(piperidin-4-ylidene)acetamide] |
| 33% | O=C(C=C1CCNCC1)Nc1ccc2ncnc(Nc3ccccc3)c2c1 [Example 31, N-(4-(phenylamino)quinazolin-6-yl)-2-(piperidin-4-ylidene)acetamide] |
| 23% | C[C@@H](Nc1ncnc2ccc(NC(=O)C=C3CCNCC3)cc12)c1ccccc1 [Example 35, N-(4-((R)-1-phenylethylamino)quinazolin-6-yl)-2-(piperidin-4-ylidene)acetamide] |
| 82% | O=C(C=C1CCNCC1)Nc1cc2c(Nc3cccc(Br)c3)ncnc2cc1OCCCN1CCOCC1 [Example 37, N-(4-(3-bromophenylamino)-7-(3-morpholinopropoxy)quinazolin-6-yl)-2-(piperidin-4-ylidene)acetamide] |
| 89% | COCCOc1cc2ncnc(Nc3cccc(Br)c3)c2cc1NC(=O)C=C1CCNCC1 [Example 40, N-(4-(3-bromophenylamino)-7-(2-methoxyethoxy)quinazolin-6-yl)-2-(piperidin-4-ylidene)acetamide] |
| 52% | CCOc1cc2ncnc(Nc3ccc(OCc4ccccn4)c(Cl)c3)c2cc1NC(=O)C=C1CCNCC1 [Example 107, N-(4-(3-chloro-4-(pyridin-2-ylmethoxy)phenylamino)-7-ethoxyquinazolin-6-yl)-2-(piperidin-4-ylidene)acetamide] |
| 59% | COc1cc2ncnc(Nc3ccc(Oc4ccccc4)c(OC)c3)c2cc1NC(=O)C=C1CCNCC1 [Example 110, N-(7-methoxy-4-(3-methoxy-4-phenoxyphenylamino)quinazolin-6-yl)-2-(piperidin-4-ylidene)acetamide] |
| 64% | N#Cc1cnc2ccc(N)cc2c1Nc1ccc(F)c(Cl)c1 [Example 132, 6-amino-4-(3-chloro-4-fluorophenylamino)quinoline-3-carbonitrile] |
| 91% | COCCOc1cc2ncc(C#N)c(Nc3ccc(OCc4cccc(F)c4)c(Cl)c3)c2cc1N [Example 141, 4-(4-(3-fluorobenzyloxy)-3-chlorophenylamino)-6-amino-7-(2-methoxyethoxy)quinoline-3-carbonitrile] |
| 89% | COc1cc2ncc(C#N)c(Nc3ccc(OCc4cccc(F)c4)c(Cl)c3)c2cc1NC(=O)C=C1CCNCC1 [Example 144, N-(4-(4-(3-fluorobenzyloxy)-3-chlorophenylamino)-3-cyano-7-methoxyquinolin-6-yl)-2-(piperidin-4-ylidene)acetamide] |

What follows are compounds tested on A431 cells (assay: A431 cell growth inhibition assay (MTT assay)). Conditions: Homo sapiens, A-431, concentration of 3 μM, 72 hours, read-out: Inhibition Percent (%).
Type: cell-based
Description: A431 Cell Growth Inhibition Assay (MTT Assay)
A431, an epidermoid carcinoma cell line; The Cell Bank, Committee on Type Culture Collection Chinese Academy of Science, Shanghai.
Mix prepared medium DMEM and F12 in the proportion of 1:1, then add FBS to a final concentration of 10%.
Dissolved the dried compound sample with 100% DMSO to 2 mM. Then diluted the dissolved compound to 20 μM with cell complete growth medium.
Prior to the assay, cultured the A431 to logarithmic phase, and then removed medium from cell monolayers and wash the cells once with sterilized PBS. Aspriated the PBS and added 2 mL trypsin solution to cover the cell growth surface, removed 1 mL trypsin solution after soaking about 1 minute. Transferred the cell-culture plate to CO2 incubator; incubated at 37° C. for 8 minutes to allow cells to dissociate. After the cells detached, added 4 mL complete growth medium containing FBS with pipette to disperse them off and mixed gently to obtain a homogeneous cell suspension. Aspirated some of the cell suspension to a sterilized polypropylene tube, and determined the cell concentration by counting in a hematocytometer chamber under a microscope. Adjusted the cell concentration with growth medium to obtain 2.5×10^4 cells per milliliter.
Added 100 μL adjusted cell suspension to the 96-well cell-culture plate and occasionally mixed the cell suspension during the seeding process. After seeding cells, incubated the plate at 37° C. overnight with 5% CO2 in the CO2 incubator for cell attachment.
After the cell attachment, added 100 μL prepared compound solutions to the corresponding wells (add PBS to the ambient wells of the plate). The final compound concentrations ranged from 10 μM to 1.52 nM. Incubated the plate at 37° C. with 5% CO2 for 72 hours in the CO2 incubator.
After the exposure to the compound, removed the cell culture supernatant. Then added 100 μL 0.5 mg/mL MTT solution which dissolved in the growth medium without FBS. Incubated the plate at 37° C. with 5% CO2 for another 4 hours to allow the MTT reaction to proceed.
After the MTT reaction, discarded the MTT reaction solution. Added 100 μL DMSO to each well, and the plate was agitated on the plate shaker for several minutes to dissolve the formazan. Then, detected the absorbance at 490 nm using microplate reader.

| SMILES | inhibition at 3 µM |
| --- | --- |
| CCOc1cc2ncc(C#N)c(Nc3ccc(F)c(Cl)c3)c2cc1NC(=O)C=C1CCN(CC)CC1 [Example 178, N-(4-(3-chloro-4-fluorophenylamino)-3-cyano-7-ethoxyquinolin-6-yl)-2-(1-ethylpiperidin-4-ylidene)acetamide] | 88% |
| CCCN1CCC(=CC(=O)Nc2cc3c(Nc4ccc(F)c(Cl)c4)c(C#N)cnc3cc2OCC)CC1 [Example 179, N-(4-(3-chloro-4-fluorophenylamino)-3-cyano-7-ethoxyquinolin-6-yl)-2-(1-proplpiperidin-4-ylidene)acetamide] | 90% |
| COCCOc1cc2ncc(C#N)c(Nc3ccc(F)c(Cl)c3)c2cc1NC(=O)C=C1CCN(C)CC1 [Example 180, N-(4-(3-chloro-4-fluorophenylamino)-3-cyano-7-(2-methoxyethoxy)quinolin-6-yl)-2-(1-methylpiperidin-4-ylidene)acetamide] | 92% |
| CCN1CCC(=CC(=O)Nc2cc3c(Nc4ccc(F)c(Cl)c4)c(C#N)cnc3cc2OCCOC)CC1 [Example 181, N-(4-(3-chloro-4-fluorophenylamino)-3-cyano-7-(2-methoxyethoxy)quinolin-6-yl)-2-(1-ethylpiperidin-4-ylidene)acetamide] | 94% |
| CCCN1CCC(=CC(=O)Nc2cc3c(Nc4ccc(F)c(Cl)c4)c(C#N)cnc3cc2OCCOC)CC1 [Example 182, N-(4-(3-chloro-4-fluorophenylamino)-3-cyano-7-(2-methoxyethoxy)quinolin-6-yl)-2-(1-propylpiperidin-4-ylidene)acetamide] | 90% |
| COCCOc1cc2ncc(C#N)c(Nc3ccc(F)c(Cl)c3)c2cc1NC(=O)C=C1CCN(CCOC)CC1 [Example 183, N-(4-(3-chloro-4-fluorophenylamino)-3-cyano-7-(2-methoxyethoxy)quinolin-6-yl)-2-(1-(2-methoxyethyl)piperidin-4-ylidene)acetamide] | 90% |
| C#Cc1cccc(Nc2c(C#N)cnc3cc(OCCOC)c(NC(=O)C=C4CCN(C)CC4)cc23)c1 [Example 190, N-(3-cyano-4-(3-ethynylphenylamino)-7-(2-methoxyethoxy)quinolin-6-yl)-2-(1-methylpiperidin-4-ylidene)acetamide] | 91% |
| C#Cc1cccc(Nc2c(C#N)cnc3cc(OCCOC)c(NC(=O)C=C4CCN(CC)CC4)cc23)c1 [Example 191, N-(3-cyano-4-(3-ethynylphenylamino)-7-(2-methoxyethoxy)quinolin-6-yl)-2-(1-ethylpiperidin-4-ylidene)acetamide] | 93% |
| C#Cc1cccc(Nc2c(C#N)cnc3cc(OCCOC)c(NC(=O)C=C4CCN(CCC)CC4)cc23)c1 [Example 192, N-(3-cyano-4-(3-ethynylphenylamino)-7-(2-methoxyethoxy)quinolin-6-yl)-2-(1-propylpiperidin-4-ylidene)acetamide] | 93% |
| C#Cc1cccc(Nc2c(C#N)cnc3cc(OCCOC)c(NC(=O)C=C4CCN(CCOC)CC4)cc23)c1 [Example 193, N-(3-cyano-4-(3-ethynylphenylamino)-7-(2-methoxyethoxy)quinolin-6-yl)-2-(1-(2-methoxyethyl)piperidin-4-ylidene)acetamide] | 90% |
| COCCOc1cc2ncc(C#N)c(Nc3cccc(Br)c3)c2cc1NC(=O)C=C1CCN(C)CC1 [Example 194, N-(4-(3-bromophenylamino)-3-cyano-7-(2-methoxyethoxy)quinolin-6-yl)-2-(1-methylpiperidin-4-ylidene)acetamide] | 89% |
